Assay results taken from patent US20110123988A1, “ANTISENSE COMPOUNDS AND METHODS FOR DIAGNOSTIC IMAGING” (GENESEEN LLC, priority 2003, published 2011).

Test system: cells expressing IGFR1 (murine BALB/c 3T3 cells; p6 cells overexpressing a transfected human IGFR1 gene; human Jurkat cells as negative control)
Test: Cellular uptake of PNA-peptide conjugates by cells in vitro
Type: cell-based
Settings: versus control PNA Gly-CCGCTTCCTTTC without peptide; measured with both the 14C-conjugate and the fluoresceinyl-conjugate; BALB/c 3T3, p6 and Jurkat cells
Text: To improve cellular uptake of an IGFR1 antisense sequence targeted against IGFR1 mRNA codons 706-709 (CCGCTTCCTTTC, SEQ ID NO:42; Ullrich et al., 1986, EMBO J. 5:10:2503-2512), a PNA with this base sequence was conjugated to a D-amino acid IGF1 peptide having the sequence (Gly)4D(Cys-Ser-Lys-Cys). This peptide binds selectively to the cell surface receptor for insulin-like growth factor 1 (IGFR1), which is overexpressed on malignant cells (Pietrzkowski et al., 1992, Mol. Cell. Biol. 12:9:3883-3889). The same PNA was also conjugated to a control peptide of the sequence (Gly)4D(Cys-Ala-Ala-Cys), which is not expected to bind to cells expressing IGFR1. The IGF1 D-peptide and control peptide was assembled on (4-methyl benzhydrypamine (MBHA) resin, and then the PNA was extended as a continuation of the peptide. The IGF1 peptide and control peptide sequences were radiolabeled with ^14C or fluorescently labeled with fluorescein isothiocyanate (Basu & Wickstrom, 1997, Bioconj. Chem. 8:4:481-488).

Substance: Gly-CCGCTTCCTTTC-(Gly)4D(CysSerLysCys) (PNA, Gly, (Gly)4, D-peptide, 14C or fluorescein label, chemistry not fully specified) [labeled with 14C or fluorescein]
- cellular uptake: much higher uptake than the control Gly-CCGCTTCCTTTC, but only in cells expressing IGFR1
